Reference: PubChem BioAssay (NCI)
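Briefly, cells in 96-well plates were exposed to five compound concentrations for 48 h, and endpoints were estimated by linear interpolation. TGI is the concentration that stops growth completely.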

Key:
Assay in all cases: DTP human tumour cell line panel, 48 h
786-0 renal = test system: 786-0 renal
A498 renal = test system: A498 renal
A549 NSCLC = test system: A549 NSCLC
ACHN renal = test system: ACHN renal
BT-549 breast = test system: BT-549 breast
CAKI-1 renal = test system: CAKI-1 renal
CCRF-CEM leukemia = test system: CCRF-CEM leukemia
COLO 205 colon = test system: COLO 205 colon
DU-145 prostate = test system: DU-145 prostate
EKVX NSCLC = test system: EKVX NSCLC
HCT-116 colon = test system: HCT-116 colon
HCT-15 colon = test system: HCT-15 colon
HL-60(TB) leukemia = test system: HL-60(TB) leukemia
HOP-62 NSCLC = test system: HOP-62 NSCLC
HOP-92 NSCLC = test system: HOP-92 NSCLC
HS 578T breast = test system: HS 578T breast
HT29 colon = test system: HT29 colon
IGROV1 ovarian = test system: IGROV1 ovarian
K-562 leukemia = test system: K-562 leukemia
KM12 colon = test system: KM12 colon
LOX IMVI melanoma = test system: LOX IMVI melanoma
M14 melanoma = test system: M14 melanoma
MALME-3M melanoma = test system: MALME-3M melanoma
MCF7 breast = test system: MCF7 breast
MDA-MB-231 breast = test system: MDA-MB-231 breast
MDA-MB-435 = test system: MDA-MB-435
MDA-N = test system: MDA-N
MOLT-4 leukemia = test system: MOLT-4 leukemia
NCI-H226 lung = test system: NCI-H226 lung
NCI-H23 lung = test system: NCI-H23 lung
NCI-H460 lung = test system: NCI-H460 lung
NCI-H522 lung = test system: NCI-H522 lung
NCI/ADR-RES ovarian = test system: NCI/ADR-RES ovarian
OVCAR-3 ovarian = test system: OVCAR-3 ovarian
OVCAR-4 ovarian = test system: OVCAR-4 ovarian
OVCAR-5 ovarian = test system: OVCAR-5 ovarian
OVCAR-8 ovarian = test system: OVCAR-8 ovarian
PC-3 prostate = test system: PC-3 prostate
RPMI-8226 leukemia = test system: RPMI-8226 leukemia
RXF 393 renal = test system: RXF 393 renal
SF-268 CNS = test system: SF-268 CNS
SF-295 CNS = test system: SF-295 CNS
SF-539 CNS = test system: SF-539 CNS
SK-MEL-2 melanoma = test system: SK-MEL-2 melanoma
SK-MEL-28 melanoma = test system: SK-MEL-28 melanoma
SK-MEL-5 melanoma = test system: SK-MEL-5 melanoma
SK-OV-3 ovarian = test system: SK-OV-3 ovarian
SN12C renal = test system: SN12C renal
SNB-19 CNS = test system: SNB-19 CNS
SNB-75 CNS = test system: SNB-75 CNS
SR leukemia = test system: SR leukemia
SW-620 colon = test system: SW-620 colon
T-47D breast = test system: T-47D breast
TK-10 renal = test system: TK-10 renal
U251 CNS = test system: U251 CNS
UACC-257 melanoma = test system: UACC-257 melanoma
UACC-62 melanoma = test system: UACC-62 melanoma
UO-31 renal = test system: UO-31 renal

Measured: TGI

C[N+]1(C)CCOC(O)(c2ccccc2)C1 (stereo not drawn)
> 100 µM: all assays above
